Common to all, as to assay type: cell-based
Series [1] addresses T1, human calcium-sensing receptor (CaSR) (Homo sapiens, UniProt P41180).
T1 construct: host or cells: HEK293
T1 sequence (P41180 20-1078): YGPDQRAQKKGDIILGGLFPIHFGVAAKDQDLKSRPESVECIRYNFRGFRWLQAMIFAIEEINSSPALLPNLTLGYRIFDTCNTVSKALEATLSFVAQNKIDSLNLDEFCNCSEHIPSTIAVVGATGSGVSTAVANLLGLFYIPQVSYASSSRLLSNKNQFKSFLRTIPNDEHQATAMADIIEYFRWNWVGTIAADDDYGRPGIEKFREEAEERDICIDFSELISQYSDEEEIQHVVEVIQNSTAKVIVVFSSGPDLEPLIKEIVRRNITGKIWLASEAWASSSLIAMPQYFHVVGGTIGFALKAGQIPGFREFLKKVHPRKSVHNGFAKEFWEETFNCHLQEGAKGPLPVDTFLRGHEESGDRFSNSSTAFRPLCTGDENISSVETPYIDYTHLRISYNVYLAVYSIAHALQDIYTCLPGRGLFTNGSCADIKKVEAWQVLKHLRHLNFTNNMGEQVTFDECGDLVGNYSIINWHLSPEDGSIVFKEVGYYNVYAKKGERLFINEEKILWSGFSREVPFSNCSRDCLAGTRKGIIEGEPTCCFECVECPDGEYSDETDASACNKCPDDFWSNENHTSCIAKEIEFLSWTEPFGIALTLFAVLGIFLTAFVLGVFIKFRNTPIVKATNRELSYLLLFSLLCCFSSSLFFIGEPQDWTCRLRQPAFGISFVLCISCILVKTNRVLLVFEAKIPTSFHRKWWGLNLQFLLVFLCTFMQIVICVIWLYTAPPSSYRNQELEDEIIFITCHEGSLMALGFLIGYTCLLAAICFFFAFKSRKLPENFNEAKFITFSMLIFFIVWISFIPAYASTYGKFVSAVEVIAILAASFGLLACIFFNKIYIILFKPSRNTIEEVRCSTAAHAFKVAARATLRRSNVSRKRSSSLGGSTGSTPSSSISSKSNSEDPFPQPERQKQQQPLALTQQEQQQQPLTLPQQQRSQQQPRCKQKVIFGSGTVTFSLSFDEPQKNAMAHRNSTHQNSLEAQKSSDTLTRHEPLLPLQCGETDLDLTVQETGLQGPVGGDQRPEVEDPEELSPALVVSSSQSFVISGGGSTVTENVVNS
The series can be described thus: Agonist activity on human calcium-sensing receptor (IP-One HTRF in stably transfected HEK293/CaSR cells). The settings on record: HEK293/CaSR cells, IP-One production, 60 min at 37° C., CaCl2 1.2 mM; read-out: EC50 for calcium-sensing receptor. Put shortly: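 HEK293 cells stably expressing CaSR stimulated 60 min at 37 °C with compounds in buffer containing 1.2 mM CaCl2, 0.5 mM MgCl2 and 50 mM LiCl. IP-One accumulation measured by HTRF (665/620 nm ratio); EC50 from four-parameter fit.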
For orientation: Time-resolved FRET reads energy transfer from a long-lived donor to a nearby acceptor.

The next series relates to human red blood cells. The series can be described thus: Hemolytic effect on human red blood cells in vitro (absorbance at 540 nm). The settings on record: 100 μg/mL in PBS, 37° C., 1 h, FIG. 1. Here is the method:
To evaluate the hemolytic effect of the compounds disclosed herein on red blood cells in vitro, human whole blood (100 μL) was taken and mixed with a phosphate buffer. The mixture was centrifuged at 4° C. for 10 min and the supernatant was discarded. The red blood cells were resuspended in PBS buffer (900 μL) and centrifuged at 4° C. for 10 min with the supernatant discarded, and the procedures above were repeated once. The test example compounds were dissolved in 1×PBS buffer to a final concentration of 100 μg/mL. The red blood cells were resuspended in solutions of various test example compounds, an octylphenoxy poly(ethyleneoxy)ethanol-100 solution or PBS buffer, and incubated at 37° C. for 1 h. After incubation, the cells were centrifuged at 4° C. for 10 min and the supernatant (100 μL) was pipetted and transferred to a 96-well plate. The absorbance at 540 nm was detected for evaluating the hemolytic effect of the test example compounds on red blood cells in vitro.

In series [2] the test system is rat peritoneal mast cells. As to the kind of experiment: In vitro histamine release in rat peritoneal mast cells (histamine ELISA). The settings on record: test compound final concentration 10 μM, 15 min at 37° C., relative to PBS buffer (1.00). Put shortly:
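Rat peritoneal mast cells, washed into HBSS + 25 mM HEPES + 1 mM CaCl2 (pH 7.4), were exposed to test compounds at 10 μM final, 48/80 at 4 μg/mL or vehicle for 15 min at 37° C. Histamine released into the supernatant was quantified by ELISA.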
For orientation: In an ELISA, binding on a coated surface is turned into a signal by an enzyme label.

The text below walks through data of US20230041996A1, “CALCIUM-SENSING RECEPTOR AGONIST COMPOUND AND APPLICATION THEREOF” (BEIJING TUO JIE BIOPHARMACEUTICAL CO. LTD., priority 2019, published 2023).

Molecules are shown by their SMILES. Square brackets hold non-standard residues; d marks the D form. Peptide text beside a SMILES is read from it. * marks the point of attachment. Cys(free,S-linked) = N[C@@H](CS*)C(=O)O; d(hLeu) = CC(C)CC[C@@H](N)C(=O)O

Consider `CC(=O)N[C@H](CSSC[C@H](N)C(=O)O)C(=O)N[C@H](CCCNC(=N)N)C(=O)N[C@H](CCCNC(=N)N)C(=O)N[C@H](CCC(C)C)C(=O)N[C@H](CCCNC(=N)N)C(=O)N[C@H](C)C(=O)N[C@H](CCCNC(=N)N)C(N)=O` [Compound 19, Ac-c(C)-r-r-(D-hLeu)-r-a-r-NH2] (Ac-[dC](Cys(free,S-linked))[dR][dR][d(hLeu)][dR][dA][dR]-NH2), for which, in series [1], the EC50 amounted to 2050 nM. Also, in the series on human red blood cells, the “hemolytic effect on red blood cells” value is given as “no significant hemolytic effect”. In addition, in series [2], the “Relative fold of histamine release in vitro” value amounted to 2.07.

As usually defined, the EC50 is the concentration that produces a half-maximal response.
